Some test systems named below: K-562 leukemia; A498 renal; NCI-H226 lung; SK-MEL-2 melanoma; OVCAR-5 ovarian; HCC-2998 colon; NCI-H522 lung; KM12 colon.
Holding throughout (experiment): NCI-60 cell line screen, 48 h

SMILES strings stand for the structures.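 Grown in 96-well plates, cells were treated for 48 hours with each compound at five concentrations. Insufficient inhibition: endpoint recorded as highest concentration tested. GI50 is the concentration that inhibits growth by half. The concentration for full growth arrest is given as TGI.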

Among the data in PubChem BioAssay (NCI) are TGI and GI50 values, retold here.

On to `COc1cc2nncc(Sc3cnnc4ccccc34)c2cc1OC`, for which the TGI was more than 100 µM with K-562 leukemia; 82 µM in the assay on A498 renal; 67.3 µM with NCI-H226 lung; 36.2 µM in the assay with SK-MEL-2 melanoma; 64.6 µM in the assay with OVCAR-5 ovarian; 32.9 µM in the assay on HCC-2998 colon. Also, the TGI in the assay with NCI-H522 lung was determined as 29.8 µM; in the assay on KM12 colon, 56.5 µM.
Turning to `Clc1ccc([O][In]([O]c2ccc(Cl)cn2)[O]c2ccc(Cl)cn2)nc1`, the GI50 in the assay with NCI-H226 lung, with SK-MEL-2 melanoma, with OVCAR-5 ovarian, with HCC-2998 colon and with KM12 colon was more than 100 µM throughout. Also, the TGI with NCI-H226 lung, with SK-MEL-2 melanoma, with OVCAR-5 ovarian, with HCC-2998 colon and in the assay on KM12 colon was more than 100 µM throughout.
Turning to `CC(C)N(C(C)C)[PH+]1O[PH+](N(C(C)C)C(C)C)O[PH+](N(C(C)C)C(C)C)O[PH+](N(C(C)C)C(C)C)O[PH+](N(C(C)C)C(C)C)O1.[C-]#[O+].[C-]#[O+].[C-]#[O+].[C-]#[O+].[C-]#[O+].[C-]#[O+].[C-]#[O+].[Cr].[Cr]` (stereo not drawn), the GI50 with K-562 leukemia, in the assay on A498 renal, in the assay on NCI-H226 lung, in the assay on SK-MEL-2 melanoma, with OVCAR-5 ovarian and in the assay with HCC-2998 colon was more than 100 µM each time. The GI50 in the assay with NCI-H522 lung and in the assay with KM12 colon was more than 100 µM in each case. For the same compound, the TGI in the assay on K-562 leukemia, in the assay with A498 renal, in the assay on NCI-H226 lung, in the assay with SK-MEL-2 melanoma, in the assay with OVCAR-5 ovarian and in the assay with HCC-2998 colon was more than 100 µM throughout. The TGI with NCI-H522 lung and in the assay with KM12 colon was more than 100 µM in each case.
Consider `Cc1cc(C)c2c(c1)CN1CN2Cc2cc(C)cc(C)c21`, for which the TGI in the assay with K-562 leukemia was more than 100 µM; in the assay with NCI-H226 lung, 61.5 µM; in the assay on OVCAR-5 ovarian it was more than 100 µM; in the assay with NCI-H522 lung, 53.4 µM; with KM12 colon, 37.1 µM.
On to `CCC1(Br)C(=O)NC(=O)N(C2CC(O)C(CO)O2)C1N=[N+]=[N-]` (stereo not drawn), for which the TGI in the assay on K-562 leukemia, in the assay on A498 renal, with SK-MEL-2 melanoma, with OVCAR-5 ovarian, with HCC-2998 colon and in the assay on NCI-H522 lung was more than 100 µM each time.
Consider `COc1ccc([C@H]2CC(=O)N3CCCC3N2)cc1` (stereo partly drawn), for which the TGI in the assay on K-562 leukemia, in the assay with A498 renal, with NCI-H226 lung, with SK-MEL-2 melanoma, with OVCAR-5 ovarian and in the assay with HCC-2998 colon was more than 100 µM in each case. In addition, the TGI with NCI-H522 lung and in the assay on KM12 colon was more than 100 µM in each case.
For `Fc1cccc(Cl)c1C1SCc2nc3ccccc3n21` (stereo not drawn), the TGI in the assay on K-562 leukemia is more than 100 µM; in the assay with A498 renal, more than 100 µM; in the assay with NCI-H226 lung, more than 100 µM; with SK-MEL-2 melanoma, 51 µM; in the assay on OVCAR-5 ovarian, more than 100 µM; with HCC-2998 colon, more than 100 µM. In addition, the TGI was 87 µM in the assay on NCI-H522 lung and 59.5 µM in the assay with KM12 colon.
On to `COC(=O)c1nc(NN)[nH]c(=O)c1CCCCCc1c(C(=O)OC)[nH]c(NN)cc1=O`, for which the TGI in the assay on K-562 leukemia, in the assay on A498 renal, in the assay with NCI-H226 lung, in the assay with SK-MEL-2 melanoma, in the assay on OVCAR-5 ovarian and in the assay on HCC-2998 colon was more than 100 µM throughout. The TGI in the assay on NCI-H522 lung and in the assay on KM12 colon was more than 100 µM in each case.
Consider `O=C1[C@@H](c2ccc(Cl)cc2)[C@H]2CC=C[C@H]2N1O`, for which the TGI in the assay on K-562 leukemia, with NCI-H226 lung, with SK-MEL-2 melanoma, in the assay with HCC-2998 colon, in the assay on NCI-H522 lung and in the assay with KM12 colon was more than 100 µM each time.
Consider `Cc1cc(Cl)ccc1NC(=O)C(=O)Cc1nc2ccc(C(=O)c3ccccc3)cc2[nH]c1=O`, for which the TGI in the assay on NCI-H226 lung, in the assay on SK-MEL-2 melanoma, in the assay with HCC-2998 colon, in the assay with NCI-H522 lung and in the assay with KM12 colon was more than 100 µM each time.
Regarding `C=C(C)C1CC2C(C)=C(OC(C)=O)C1n1c(=O)c3cc4ccccc4cc3c(=O)n12` (stereo not drawn), the TGI in the assay with K-562 leukemia, in the assay with A498 renal, with NCI-H226 lung, with SK-MEL-2 melanoma, in the assay with OVCAR-5 ovarian and with HCC-2998 colon was more than 100 µM each time. Further, the TGI in the assay with NCI-H522 lung and in the assay with KM12 colon was more than 100 µM in each case.
Turning to `CC[O-].CC[O-].O=C1C(=C([O-])c2ccccc2)C(=O)c2ccccc21.O=C1C(=C([O-])c2ccccc2)C(=O)c2ccccc21.[Ti+4]`, the GI50 is more than 100 µM in the assay with K-562 leukemia; more than 100 µM in the assay with A498 renal; more than 100 µM in the assay with NCI-H226 lung; 66.3 µM in the assay with SK-MEL-2 melanoma; more than 100 µM with OVCAR-5 ovarian; more than 100 µM with HCC-2998 colon. Moreover, the TGI in the assay on K-562 leukemia, in the assay with A498 renal, in the assay with NCI-H226 lung, with SK-MEL-2 melanoma, in the assay on OVCAR-5 ovarian and in the assay on HCC-2998 colon was more than 100 µM in each case.
With `COc1ccc(C2C(Cl)C(=O)N2n2cnc3ccccc3c2=O)cc1OC` (stereo not drawn), the TGI with K-562 leukemia, with NCI-H226 lung, in the assay with SK-MEL-2 melanoma, in the assay on OVCAR-5 ovarian, in the assay on HCC-2998 colon and with NCI-H522 lung was more than 100 µM throughout. In addition, the TGI in the assay on KM12 colon was more than 100 µM.
`Cc1cc(O)c2c(c1)C(O)(c1ccc3c(c1O)C(=O)c1c(O)cc(C)cc1C3(O)C1OC(CO)C(O)C(O)C1O)c1cccc(O)c1C2=O` (stereo not drawn): the TGI turned out to be 18.9 µM in the assay with K-562 leukemia; 26.5 µM in the assay with A498 renal; 32.3 µM in the assay on OVCAR-5 ovarian; 29.5 µM in the assay with HCC-2998 colon; 24 µM in the assay with KM12 colon.
`O=[N+]([O-])c1ccc(N=Nc2c(O)[nH]c3ccc([N+](=O)[O-])cc23)cc1`: the TGI is more than 100 µM in the assay on K-562 leukemia; more than 100 µM in the assay on A498 renal; 7 µM in the assay with NCI-H226 lung; more than 100 µM with SK-MEL-2 melanoma; 50.4 µM in the assay on NCI-H522 lung; 30.8 µM with KM12 colon.
